Test results as given in PubChem BioAssay (NCI).
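Values below derive from 48-hour exposures of cells grown in 96-well plates, with endpoints linearly interpolated between the two concentrations bracketing the appropriate inhibition level. Abbreviation: GI50, concentration required for 50% inhibition of growth. Definition used: TGI = concentration required for complete inhibition of growth.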

Tests used:
Assay in all cases: NCI-60 cell line screen, 48 h; in the data active = GI50 below about 0.43 µM; inactive = the rest
[1] = tested on: UACC-257 melanoma
[2] = tested on: M14 melanoma
[3] = tested on: LOX IMVI melanoma
[4] = tested on: SNB-19 CNS
[5] = tested on: UO-31 renal
[6] = tested on: OVCAR-4 ovarian
[7] = tested on: HCC-2998 colon
[8] = tested on: HOP-92 NSCLC
[9] = tested on: SK-MEL-5 melanoma
[10] = tested on: HOP-18 NSCLC
[11] = tested on: OVCAR-3 ovarian
[12] = tested on: KM20L2 colon
[13] = tested on: SK-MEL-2 melanoma
[14] = tested on: RPMI-8226 leukemia
[15] = tested on: KM12 colon
[16] = tested on: CAKI-1 renal
[17] = tested on: SW-620 colon
[18] = tested on: MALME-3M melanoma
[19] = tested on: HL-60(TB) leukemia
[20] = tested on: NCI-H226 lung
[21] = tested on: MOLT-4 leukemia
[22] = tested on: NCI-H460 lung
[23] = tested on: UACC-62 melanoma
[24] = tested on: DMS 114 small cell lung
[25] = tested on: TK-10 renal
[26] = tested on: OVCAR-8 ovarian
[27] = tested on: A498 renal
[28] = tested on: CCRF-CEM leukemia
[29] = tested on: 786-0 renal
[30] = tested on: SN12C renal
[31] = tested on: LXFL 529 NSCLC
[32] = tested on: U251 CNS
[33] = tested on: NCI-H23 lung
[34] = tested on: SNB-75 CNS
[35] = tested on: SK-OV-3 ovarian
[36] = tested on: K-562 leukemia
[37] = tested on: IGROV1 ovarian
[38] = tested on: OVCAR-5 ovarian
[39] = tested on: M19-MEL melanoma
[40] = tested on: SNB-78 CNS
[41] = tested on: HCT-15 colon
[42] = tested on: EKVX NSCLC
[43] = tested on: SF-295 CNS
[44] = tested on: A549 NSCLC
[45] = tested on: HCT-116 colon
[46] = tested on: SF-539 CNS
[47] = tested on: DLD-1 colon
[48] = tested on: HT29 colon
[49] = tested on: ACHN renal
[50] = tested on: HOP-62 NSCLC
[51] = tested on: COLO 205 colon
[52] = tested on: XF 498 CNS

O=C(N/N=C/c1cc(Cl)cc(Cl)c1[O-])c1ccccc1.O=C(N/N=C/c1cc(Cl)cc(Cl)c1[O-])c1ccccc1.[Co+2]
76.3 µM: TGI [1]
46.9 µM: TGI [8]
97.6 µM: TGI [43]
93 µM: TGI [46]
> 100 µM: TGI [3] | TGI [4] | TGI [6] | TGI [7] | TGI [9] | TGI [10] | TGI [11] | TGI [12] | TGI [13] | TGI [14] | TGI [15] | TGI [16] | TGI [17] | TGI [18] | TGI [22] | TGI [25] | TGI [26] | TGI [27] | TGI [29] | TGI [30] | TGI [31] | TGI [32] | TGI [33] | TGI [34] | TGI [35] | TGI [37] | TGI [38] | TGI [39] | TGI [40] | TGI [41] | TGI [42] | TGI [44] | TGI [45] | TGI [47] | TGI [48] | TGI [49] | TGI [50] | TGI [51] | TGI [52]
51.6 µM: TGI [23]
73.3 µM: TGI [5]
21.4 µM: TGI [21]
92.2 µM: TGI [20]
78.3 µM: TGI [2]
8.89 µM: TGI [19]
19.6 µM: TGI [28]
inactive: GI50 [1] 19.6 µM | GI50 [2] 17.8 µM | GI50 [3] 9.19 µM | GI50 [4] 45 µM | GI50 [5] 16.8 µM | GI50 [6] 16.1 µM | GI50 [7] 40.7 µM | GI50 [8] 5.71 µM | GI50 [9] 29 µM | GI50 [10] 9.34 µM | GI50 [11] 3.18 µM | GI50 [12] 47.8 µM | GI50 [13] 26.5 µM | GI50 [14] 13.4 µM | GI50 [15] 27.3 µM | GI50 [16] 21.7 µM | GI50 [17] 24.9 µM | GI50 [18] 33 µM | GI50 [19] 2.62 µM | GI50 [20] 26.5 µM | GI50 [21] 4.43 µM | GI50 [22] 16.7 µM | GI50 [23] 12.2 µM | GI50 [24] 10.6 µM | GI50 [25] 41 µM | GI50 [26] 21.1 µM | GI50 [27] 34.4 µM | GI50 [28] 3.43 µM | GI50 [29] 10.4 µM | GI50 [30] 14.8 µM | GI50 [31] 7.38 µM | GI50 [32] 33.5 µM | GI50 [33] 21 µM | GI50 [34] 25.3 µM | GI50 [35] 40.9 µM | GI50 [36] 15.6 µM | GI50 [37] 27.8 µM | GI50 [38] 46.5 µM | GI50 [39] 20.5 µM | GI50 [40] 53.2 µM | GI50 [41] 7.22 µM | GI50 [42] 10.3 µM | GI50 [43] 20.8 µM | GI50 [44] 28.8 µM | GI50 [45] 14.6 µM | GI50 [46] 20.5 µM | GI50 [47] 14.7 µM | GI50 [48] 49.5 µM | GI50 [49] 16.7 µM | GI50 [50] 24.8 µM | GI50 [51] 42.1 µM | GI50 [52] 12.4 µM
76.7 µM: TGI [36]
67.9 µM: TGI [24]
